Measured values from paper PMC3726613, “Bacterial Cyclic AMP-Phosphodiesterase Activity Coordinates Biofilm Formation” (PLoS ONE, 2013).

Molecular target: T1, CpdS (SMA3506), CpdS-His8 (Serratia ureilytica, UniProt A0A9X9G1H8)
T1 construct: gene cpdA
Test: bis-pNPP hydrolysis assay
Assay type: biochemical
Conditions: read-out: 50% reduction in the activity

T1 sequence (A0A9X9G1H8 entry or part of it): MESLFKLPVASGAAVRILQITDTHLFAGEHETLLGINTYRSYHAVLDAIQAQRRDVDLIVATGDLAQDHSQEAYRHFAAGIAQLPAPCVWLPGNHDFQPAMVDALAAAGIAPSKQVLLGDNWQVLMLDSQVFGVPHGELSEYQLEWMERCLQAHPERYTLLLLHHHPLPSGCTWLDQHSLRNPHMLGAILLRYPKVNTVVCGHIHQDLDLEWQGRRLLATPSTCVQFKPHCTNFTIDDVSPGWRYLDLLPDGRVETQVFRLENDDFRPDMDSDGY

## CC(C)Cn1c(=O)n(C)c(=O)c2[nH]cnc21 [IBMX]
  IC50: 4.8 mM
